Experiments:
[1] = cited from earlier work
[2] = cited from earlier work; remark: listed apart in the source
IL-7 = assay: Aortic mural gene expression, RT-PCR (TLDA); type: in vivo, ApoE−/− mice; details: fold change over ApoE−/− control; aorta, 28 days Ang II infusion
Description: (§1) ApoE−/− mice used in this study were divided into different pretreatment groups: 1) Fluvastatin-MF; 2) Doxycycline-MD; 3) Irbesartan-MI; 4) Telmisartan-MT; 5) Control (water) and fed medicated chow or medicated drinking water 1 week prior to pump implantation. AngII (1000 ng·kg^−1 of body weight·min^−1) was infused subcutaneously via Alzet mini-osmotic pumps for 28 days. All mice were maintained on the medicated chow (MI & MT) or medicated drinking water (MF & MD) treatments which were delivered daily for a total of 28 days following pump implantation.
(§2) In order to determine the effect of the various treatments on the progressive enlargement of the experimental AAAs the mice were followed with high frequency trans-abdominal ultrasound. Maximum aortic diameter was measured and recorded prior to pump implantation and then at 3, 7, 14, 21, and 28 days. All mice were sacrificed 28 days after pump implantation. Aortae were harvested and subjected to either histological analysis (Elastic Masson trichome, MAC2, CD31 and TUNEL staining) and analysis of mural gene expression. Plasma drug concentrations of experimental compounds were quantified on the day of sacrifice using high performance liquid chromatography (HPLC).
(§3) Total RNA was extracted from homogenized aortas using the Qiazol lysis reagent and RNeasy Lipid Tissue Mini kit. DNAse treatment was included in the procedure. RNA concentration was determined utilizing the Quant iT RNA assay kit. Complimentary deoxyribonucleic acid (cDNA) was synthesized from 1 μg RNA using High reverse cDNA transcription kit. Briefly the reaction tubes containing RNA, reverse transcriptase, buffer, RNAse inhibitor, and nuclease free water were incubated at 25° C. for 10 minutes to allow annealing. Reverse transcription was performed at 37° C. for 120 min, followed by a 5 sec incubation at 85° C. to inactivate the reverse transcriptase enzyme. The cDNA samples were cooled at 4° C. and stored at −80° C. until further use.
(§4) Real time PCR was performed using a 384-well Taqman low density array (TLDA) card. Each sample specific PCR mix contained 50 ng of total RNA converted to cDNA. The PCR reaction for Taqman assays contained 50 μl Master Mix (Taqman Universal PCR Master Mix,) and 50 ul of cDNA and RNAase free water. Assays were performed to include appropriate controls (no template control). The RT-PCR protocol included an initial step of 50° C. (2 minutes) […], denaturation by a hot start at 95° C. for 10 min, followed by 40 cycles of a 2 step program (denaturation at 95° C. for 15 secs for primer annealing/extension at 60° C. for 1 min). Fluorescence data was collected at 60° C. Fluorescence was quantified with ABI PRISM 7900HT Sequence Detection System. To verify amplification of a specific target cDNA, data generated was analyzed using SDS 2.2.3 software (Sequence Detection System Software, Applied Biosystems). For all amplification plots, the baseline data were set with the automatic CT function available with SDS 2.2.3 calculating the optimal baseline range and threshold value by using the AutoCT algorithm. According to the manufacturer's instruction, a CT value of ≧39 corresponds to nonspecific amplification marking the limits of detection. For endogenous control GAPDH was normalized to B2M. For relative quantification (RQ), pooled ApoE−/− control was used as the calibrator (with expression equal to 1).

MMP-12 = assay: Aortic mural gene expression, RT-PCR (TLDA); type: in vivo, ApoE−/− mice; details: fold change over ApoE−/− control; aorta, 28 days Ang II infusion
Description: as §1, §2, §3, §4

Osteopontin = assay: Aortic mural gene expression, RT-PCR (TLDA); type: in vivo, ApoE−/− mice; details: fold change over ApoE−/− control; aorta, 28 days Ang II infusion
Description: as §1, §2, §3, §4

CCL2 = assay: Aortic mural gene expression, RT-PCR (TLDA); type: in vivo, ApoE−/− mice; details: fold change over ApoE−/− control; aorta, 28 days Ang II infusion
Description: as §1, §2, §3, §4

Fibronectin -1 = assay: Aortic mural gene expression, RT-PCR (TLDA); type: in vivo, ApoE−/− mice; details: fold change over ApoE−/− control; aorta, 28 days Ang II infusion
Description: as §1, §2, §3, §4

CCR5 = assay: Aortic mural gene expression, RT-PCR (TLDA); type: in vivo, ApoE−/− mice; details: fold change over ApoE−/− control; aorta, 28 days Ang II infusion
Description: as §1, §2, §3, §4

Cathepsin B = assay: Aortic mural gene expression, RT-PCR (TLDA); type: in vivo, ApoE−/− mice; details: fold change over ApoE−/− control; aorta, 28 days Ang II infusion
Description: as §1, §2, §3, §4

ITGAL = assay: Aortic mural gene expression, RT-PCR (TLDA); type: in vivo, ApoE−/− mice; details: fold change over ApoE−/− control; aorta, 28 days Ang II infusion
Description: as §1, §2, §3, §4

HMOX 1 = assay: Aortic mural gene expression, RT-PCR (TLDA); type: in vivo, ApoE−/− mice; details: fold change over ApoE−/− control; aorta, 28 days Ang II infusion
Description: as §1, §2, §3, §4

Cybb = assay: Aortic mural gene expression, RT-PCR (TLDA); type: in vivo, ApoE−/− mice; details: fold change over ApoE−/− control; aorta, 28 days Ang II infusion
Description: as §1, §2, §3, §4

Rac2 = assay: Aortic mural gene expression, RT-PCR (TLDA); type: in vivo, ApoE−/− mice; details: fold change over ApoE−/− control; aorta, 28 days Ang II infusion
Description: as §1, §2, §3, §4

TIMP2 = assay: Aortic mural gene expression, RT-PCR (TLDA); type: in vivo, ApoE−/− mice; details: fold change over ApoE−/− control; aorta, 28 days Ang II infusion
Description: as §1, §2, §3, §4

CXCR4 = assay: Aortic mural gene expression, RT-PCR (TLDA); type: in vivo, ApoE−/− mice; details: fold change over ApoE−/− control; aorta, 28 days Ang II infusion
Description: as §1, §2, §3, §4

TNF-α = assay: Aortic mural gene expression, RT-PCR (TLDA); type: in vivo, ApoE−/− mice; details: fold change over ApoE−/− control; aorta, 28 days Ang II infusion
Description: as §1, §2, §3, §4

Vav1 = assay: Aortic mural gene expression, RT-PCR (TLDA); type: in vivo, ApoE−/− mice; details: fold change over ApoE−/− control; aorta, 28 days Ang II infusion
Description: as §1, §2, §3, §4

ITGB2 = assay: Aortic mural gene expression, RT-PCR (TLDA); type: in vivo, ApoE−/− mice; details: fold change over ApoE−/− control; aorta, 28 days Ang II infusion
Description: as §1, §2, §3, §4

Runx3 = assay: Aortic mural gene expression, RT-PCR (TLDA); type: in vivo, ApoE−/− mice; details: fold change over ApoE−/− control; aorta, 28 days Ang II infusion
Description: as §1, §2, §3, §4

Cathepsin S = assay: Aortic mural gene expression, RT-PCR (TLDA); type: in vivo, ApoE−/− mice; details: fold change over ApoE−/− control; aorta, 28 days Ang II infusion
Description: as §1, §2, §3, §4

CCR2 = assay: Aortic mural gene expression, RT-PCR (TLDA); type: in vivo, ApoE−/− mice; details: fold change over ApoE−/− control; aorta, 28 days Ang II infusion
Description: as §1, §2, §3, §4

MAPK8 = assay: Aortic mural gene expression, RT-PCR (TLDA); type: in vivo, ApoE−/− mice; details: fold change over ApoE−/− control; aorta, 28 days Ang II infusion
Description: as §1, §2, §3, §4

LOX = assay: Aortic mural gene expression, RT-PCR (TLDA); type: in vivo, ApoE−/− mice; details: fold change over ApoE−/− control; aorta, 28 days Ang II infusion
Description: as §1, §2, §3, §4

Tgfβ1 = assay: Aortic mural gene expression, RT-PCR (TLDA); type: in vivo, ApoE−/− mice; details: fold change over ApoE−/− control; aorta, 28 days Ang II infusion
Description: as §1, §2, §3, §4

MMP-8 = assay: Aortic mural gene expression, RT-PCR (TLDA); type: in vivo, ApoE−/− mice; details: fold change over ApoE−/− control; aorta, 28 days Ang II infusion
Description: as §1, §2, §3, §4

NFKb1 = assay: Aortic mural gene expression, RT-PCR (TLDA); type: in vivo, ApoE−/− mice; details: fold change over ApoE−/− control; aorta, 28 days Ang II infusion
Description: (§5) Total RNA was extracted from homogenized aortas using the Qiazol lysis reagent and RNeasy Lipid Tissue Mini kit. DNAse treatment was included in the procedure. RNA concentration was determined utilizing the Quant iT RNA assay kit. Complimentary deoxyribonucleic acid (cDNA) was synthesized from 1 μg RNA using High reverse cDNA transcription kit. Briefly the reaction tubes containing RNA, reverse transcriptase, buffer, RNAse inhibitor, and nuclease free water were incubated at 25° C. for 10 minutes to allow annealing. […] The cDNA samples were cooled at 4° C. and stored at −80° C. until further use.
(§6) Real time PCR was performed using a 384-well Taqman low density array (TLDA) card. Each sample specific PCR mix contained 50 ng of total RNA converted to cDNA. The PCR reaction for Taqman assays contained 50 μl Master Mix (Taqman Universal PCR Master Mix,) and 50 ul of cDNA and RNAase free water. Assays were performed to include appropriate controls (no template control). The RT-PCR protocol included an initial step of 50° C. […] Fluorescence data was collected at 60° C. Fluorescence was quantified with ABI PRISM 7900HT Sequence Detection System. To verify amplification of a specific target cDNA, data generated was analyzed using SDS 2.2.3 software (Sequence Detection System Software, Applied Biosystems). […] For relative quantification (RQ), pooled ApoE−/− control was used as the calibrator (with expression equal to 1).

CSF1 = assay: Aortic mural gene expression, RT-PCR (TLDA); type: in vivo, ApoE−/− mice; details: fold change over ApoE−/− control; aorta, 28 days Ang II infusion
Description: as §5, §6

[3] = system: genes involved in the pathophysiology of AAA; assay: Drug inhibition effect on differentially expressed genes, overall; type: in vivo, ApoE−/− mice; details: sum of heat map grades over 25 genes; ApoE−/− + Ang II group scored 55
Description: as §1, §2, §3, §4

ACE = ACE (Homo sapiens, UniProt P12821); details: in vitro; cited from earlier work
Chain of ACE (P12821 30-1306, species assumed): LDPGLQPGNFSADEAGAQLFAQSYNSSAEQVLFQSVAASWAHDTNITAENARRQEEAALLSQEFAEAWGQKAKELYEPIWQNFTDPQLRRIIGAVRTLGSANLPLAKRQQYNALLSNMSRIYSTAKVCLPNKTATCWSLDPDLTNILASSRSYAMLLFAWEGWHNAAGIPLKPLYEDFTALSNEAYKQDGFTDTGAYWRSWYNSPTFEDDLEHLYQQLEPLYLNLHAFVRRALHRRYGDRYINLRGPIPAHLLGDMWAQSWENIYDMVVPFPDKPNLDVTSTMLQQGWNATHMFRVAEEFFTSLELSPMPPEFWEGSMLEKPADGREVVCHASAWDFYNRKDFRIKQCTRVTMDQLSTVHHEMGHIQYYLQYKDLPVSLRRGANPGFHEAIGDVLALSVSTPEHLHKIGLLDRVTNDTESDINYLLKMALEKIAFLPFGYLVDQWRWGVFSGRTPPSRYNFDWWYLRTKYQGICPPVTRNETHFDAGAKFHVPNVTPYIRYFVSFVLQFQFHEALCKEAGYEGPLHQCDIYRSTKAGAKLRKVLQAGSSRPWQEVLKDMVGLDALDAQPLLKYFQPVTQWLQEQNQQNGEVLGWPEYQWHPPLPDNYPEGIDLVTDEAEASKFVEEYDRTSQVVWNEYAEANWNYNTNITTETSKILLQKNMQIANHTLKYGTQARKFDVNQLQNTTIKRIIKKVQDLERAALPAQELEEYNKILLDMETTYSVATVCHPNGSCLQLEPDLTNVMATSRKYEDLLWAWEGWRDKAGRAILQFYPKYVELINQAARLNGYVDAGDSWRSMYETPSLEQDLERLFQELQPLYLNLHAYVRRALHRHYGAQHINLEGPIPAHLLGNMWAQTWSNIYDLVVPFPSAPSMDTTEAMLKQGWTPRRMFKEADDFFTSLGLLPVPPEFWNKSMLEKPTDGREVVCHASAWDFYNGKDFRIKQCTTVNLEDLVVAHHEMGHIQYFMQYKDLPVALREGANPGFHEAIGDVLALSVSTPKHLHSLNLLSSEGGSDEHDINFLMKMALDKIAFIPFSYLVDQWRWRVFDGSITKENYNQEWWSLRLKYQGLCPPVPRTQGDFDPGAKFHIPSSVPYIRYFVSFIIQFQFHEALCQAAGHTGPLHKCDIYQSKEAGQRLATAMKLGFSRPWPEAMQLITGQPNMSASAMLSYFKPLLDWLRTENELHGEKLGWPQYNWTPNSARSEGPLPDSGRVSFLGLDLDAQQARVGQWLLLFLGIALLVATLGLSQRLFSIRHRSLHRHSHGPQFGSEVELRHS

Compound: COCCCOc1cc(C[C@@H](C[C@H](N)[C@@H](O)C[C@H](C(=O)NCC(C)(C)C(N)=O)C(C)C)C(C)C)ccc1OC [Aliskiren]
- Water solubility [1]: good water solubility
- Half-life in the plasma ([2]; in vivo): approximately 24 hours

Compound: C[C@H](CS)C(=O)N1CCC[C@H]1C(=O)O [Captopril, captopril]
- Bioavailability ([2]; given orally): about 75%

Compound: C[C@H]1c2cccc(O)c2C(=O)C2=C(O)[C@]3(O)C(=O)C(C(N)=O)=C(O)[C@@H](N(C)C)[C@@H]3[C@@H](O)[C@@H]21 [Doxycycline]
- IL-7 expression (IL-7): − (0 to 1 = −)
- MMP-12 expression (MMP-12): ++++ (>10.1 = ++++)
- Osteopontin expression (Osteopontin): ++++ (>10.1 = ++++)
- CCL2 expression (CCL2): + (1.1 to 1.5 = +)
- Fibronectin -1 expression (Fibronectin -1): − (0 to 1 = −)
- CCR5 expression (CCR5): +++ (3.1 to 10 = +++)
- Cathepsin B expression (Cathepsin B): ++ (1.51 to 3 = ++)
- ITGAL expression (ITGAL): +++ (3.1 to 10 = +++)
- HMOX 1 expression (HMOX 1): ++++ (>10.1 = ++++)
- Cybb expression (Cybb): +++ (3.1 to 10 = +++)
- Rac2 expression (Rac2): +++ (3.1 to 10 = +++)
- TIMP2 expression (TIMP2): − (0 to 1 = −)
- CXCR4 expression (CXCR4): ++++ (>10.1 = ++++)
- TNF-α expression (TNF-α): ++ (1.51 to 3 = ++)
- Vav1 expression (Vav1): ++ (1.51 to 3 = ++)
- ITGB2 expression (ITGB2): ++ (1.51 to 3 = ++)
- Runx3 expression (Runx3): +++ (3.1 to 10 = +++)
- Cathepsin S expression (Cathepsin S): +++ (3.1 to 10 = +++)
- CCR2 expression (CCR2): +++ (3.1 to 10 = +++)
- MAPK8 expression (MAPK8): − (0 to 1 = −)
- LOX expression (LOX): − (0 to 1 = −)
- Tgfβ1 expression (Tgfβ1): +++ (3.1 to 10 = +++)
- MMP-8 expression (MMP-8): ++++ (>10.1 = ++++)
- NFKb1 expression (NFKb1): − (0 to 1 = −)
- CSF1 expression (CSF1): − (0 to 1 = −)
- Total Score [3]: 53

Compound: NCCCC[C@H](N[C@@H](CCc1ccccc1)C(=O)O)C(=O)N1CCC[C@H]1C(=O)O [Lisinopril, lisinopril]
- ACE inhibitor potency (in words) (ACE): slightly more potent ACE inhibitor than is enalaprilat
- Time to peak concentrations in the plasma ([2]; after oral administration): about 7 hours

Compound: O=C(O)c1cccnc1 [Niacin, nicotinic acid]
- Water solubility [1]: water-soluble

Compound: CCOC(=O)[C@H](CCc1ccccc1)N[C@@H](C)C(=O)N1CCC[C@H]1C(=O)O [enalapril]
- ACE inhibitor potency (in words) (ACE): not highly active

Compound: CCC(=O)O[C@@H](O[P@](=O)(CCCCc1ccccc1)CC(=O)N1C[C@H](C2CCCCC2)C[C@H]1C(=O)O)C(C)C [fosinopril]
- Route of clearance/elimination ([2]; in vivo): balanced elimination by the liver and kidneys

Compound: CCOC(=O)[C@H](CCc1ccccc1)N[C@@H](C)C(=O)N1CC2(C[C@H]1C(=O)O)SCCS2 [spirapril]
- Route of clearance/elimination ([2]; in vivo): balanced elimination by the liver and kidneys

Reference: patent publication US20120239131A1, “METHODS AND APPARATUS FOR TREATMENT OF ANEURYSMAL TISSUE” (Medtronic Vascular, Inc., priority 2011, published 2012)
